Reference: BindingDB's records for patent US10669227 (THE RESEARCH FOUNDATION OF STATE UNIVERSITY OF NEW YORK, 2020)
pIC50: −log10 of the molar value.

Biological target: 72 kDa type IV collagenase (Homo sapiens, UniProt P08253)
Test: Inhibition of MMPs
Description: However, it should be noted that excessive inhibition of MMP activity may not be desirable therapeutically because a minimal, or basal, level of MMPs may be necessary for optimal defense of the host.

72 kDa type IV collagenase, sequence (P08253 whole entry): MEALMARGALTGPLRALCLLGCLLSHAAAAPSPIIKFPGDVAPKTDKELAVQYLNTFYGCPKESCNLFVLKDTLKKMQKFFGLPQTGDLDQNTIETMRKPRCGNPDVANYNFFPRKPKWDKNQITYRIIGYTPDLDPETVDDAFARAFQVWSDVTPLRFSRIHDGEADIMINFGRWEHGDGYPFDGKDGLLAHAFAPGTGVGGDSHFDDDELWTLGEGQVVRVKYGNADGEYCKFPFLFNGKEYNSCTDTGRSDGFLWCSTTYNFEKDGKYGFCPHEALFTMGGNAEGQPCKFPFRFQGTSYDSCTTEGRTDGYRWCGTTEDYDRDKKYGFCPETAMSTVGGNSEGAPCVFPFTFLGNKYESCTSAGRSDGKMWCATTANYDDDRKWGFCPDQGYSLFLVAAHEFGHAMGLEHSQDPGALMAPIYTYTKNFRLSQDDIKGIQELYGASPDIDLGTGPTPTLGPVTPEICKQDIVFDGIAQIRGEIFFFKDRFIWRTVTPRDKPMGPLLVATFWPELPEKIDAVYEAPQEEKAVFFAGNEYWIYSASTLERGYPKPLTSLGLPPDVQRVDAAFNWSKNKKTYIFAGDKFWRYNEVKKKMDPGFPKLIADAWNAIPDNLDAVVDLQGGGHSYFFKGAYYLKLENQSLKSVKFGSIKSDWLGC

For `COc1cc(/C=C/C(=O)C(C(=O)/C=C/c2ccc(O)c(CO)c2)C(=O)Nc2ccccc2)ccc1O` (stereo unspecified) [US10669227, Compound 6], the pIC50 was 4.07.
